Assays:
[1] = Arrhenius activation energy (Ea) of release of the PHOTO moiety; format: physicochemical; conditions: log of observed rate constant vs 1/T (° K.)
Method: The rate at which the release reaction increases with temperature is a function of the activation energy. For example, for an increase in temperature from 20° C. to 30° C., it hs been calculated that the reaction rate will increase by a factor of 2 when Ea is 12.2, by a factor of about 3 when Ea is 19.3, by a factor of about 4 when Ea is 24.4 and by a factor of about 5 when Ea is 28.3. […] Typically, for such release reactions with other compounds, when the room temperature release rate is relatively fast, the activation energy tends to be about 10. Accordingly, it is possible to select, according to the invention, for a particular photographic system a compound which has a desired release rate at room temperature, a much slower release rate at lower temperatures and a much higher release rate at higher temperatures.
The Arrhenius activation energy (Ea) was calculated by plotting the log of the observed rate constant vs 1/T (° K.) for each compound.

[2] = release kinetics: t1/2 for cleavage with release of the PHOTO moiety in alkaline solution; format: physicochemical; conditions: 1×10^-4 molar, 30% acetonitrile/0.25N aqueous potassium hydroxide, 22°+0.1° C., 100 µM
Text: The rate of release of the PHOTO moiety is dependent upon a number of factors. […] The release rate is also dependent upon the hydroxyl ion concentration of the alkaline medium. […] The rate of release is also temperature dependent, that is, the rate increases as the temperature at which processing of the film unit is effected increases. Thus, where PHOTO is a photographic reagent residue for example, the compounds which are utilized according to the invention can provide more uniform sensitometry for the film units of the invention over a wide temperature range of processing. In other words, the sensitometry of such film units can be less temperature dependent than would otherwise be the case.
The release kinetics of the compounds of the invention vary over a wide range. The t1/2 times in solution, i.e., the time required for one-half of the material to undergo cleavage with release of the PHOTO moiety, for some of the compounds illustrated above are shown in Table I. The values were obtained using 1×10^-4 molar concentrations in 30% acetonitrile/0.25N aqueous potassium hydroxide solution at a temperature of 22°+0.1° C.

Compound | Arrhenius activation energy (Ea) [1] [kcal/mol] | t1/2 [2] [s] | t1/2 ([2]; syn isomer) [s]
ON=C(CSc1nnnn1-c1ccc(O)cc1)CSc1nnnn1-c1ccc(O)cc1 [Compound I] | 21.8 | 51.1 | 
ON=C(CSc1nnnn1-c1ccccc1)CSc1nnnn1-c1ccccc1 [III] |  | 8.9 | 
CC(CSc1nnnn1-c1ccccc1)=NO [IX] | 26.5 | 22.5 | 
ON=CCSc1nnnn1-c1ccccc1 [VIII] |  | 49.1 | 1020.0
ON=C(CSc1nnnn1-c1ccccc1)c1ccccc1 [VII] |  | 4 to 6 | 
CC(CSc1nnnn1-c1ccc(C(C)=NO)cc1)=NO [VI] |  | 28.9 | 
CC(CSc1nnnn1-c1ccc(O)cc1)=NO [V] |  | 40.5 | 
NC(CSc1nnnn1-c1ccccc1)=NO [XIII] |  | 546.0 | 
Cc1ccc(S(=O)(=O)NN=C(CSc2nnnn2-c2ccccc2)c2ccccc2)cc1 [XII] |  | 165.0 | 
CS(=O)(=O)Nc1ccc(C(CSc2nnnn2-c2ccccc2)=NO)cc1 [XI] |  | 7.6 | 
COc1ccc(C(CSc2nnnn2-c2ccccc2)=NO)cc1 [X] | 21.9 | 4.3 | 
